From a melting point compilation (Tetko et al.; mined from patent text by program, amines drawn as free bases though some values may be those of a salt)

**Q.** Which melting point does the source give for `COc1cc(-c2ccc(C(=N)NO)cc2)cc(-c2nc3cc(C(=N)NO)ccc3[nH]2)c1O` here?
**A.** Its melting point is 319 to 321 °C.

**Q.** Which melting point does the source give for `Cc1c2c(nn1C)N(c1ccc(Cl)cc1Cl)CCC2` here?
**A.** Its melting point is 66.6 to 76.6 °C.

**Q.** For `O=C(N[C@@H](CO)c1nc2cc(Br)ccc2[nH]1)c1ccc(C(=O)N2CC=CC2)c(Cl)c1`, which melting point is on record?
**A.** The melting point was 124 to 126 °C.

**Q.** Which melting point does the source give for `O=C(NC1CCC2(O)C3Cc4ccc(O)c5c4C2(CCN3CC2CC2)C1O5)c1ccccc1` (stereo not given) here?
**A.** The melting point was 182 to 185 °C.

**Q.** Which melting point does the source give for `CCC1Cc2cc3c(cc2C(c2ccc([N+](=O)[O-])cc2)O1)OCO3` (stereo not given) here?
**A.** The melting point was 116 to 118 °C.

**Q.** With `Cc1ccc(-c2cc(Cl)c3cc(Cl)ccc3n2)cc1` as the compound, how does the melting point read?
**A.** The melting point was 123 to 125 °C.

**Q.** With `CCC(=O)c1ccc(OCc2cccc(C(F)(F)F)c2)cc1` as the compound, how does the melting point read?
**A.** Its melting point is 63 to 64 °C.

**Q.** For `O=C(O)c1cc(Cl)cc2c1[nH]c1ccccc12`, which melting point is on record?
**A.** Its melting point is 245 °C.

**Q.** Which melting point does the source give for `Cn1ncnc1COc1nn2c(-c3ccccc3F)nncc2c1-c1cccc(C#N)c1` here?
**A.** Its melting point is 194 to 196 °C.

**Q.** With `Clc1ccc(C2=NOCCS2)s1` as the compound, how does the melting point read?
**A.** Its melting point is 74 to 77 °C.

**Q.** Which melting point does the source give for `CC(C)OC(=O)C=Cc1ccc(Br)cc1` here?
**A.** Its melting point is 64 to 66 °C.

**Q.** Which melting point does the source give for `CC(C)CN1c2ccccc2C(C)(C)C12C=Nc1c(cc(N3CCc4ccccc43)c3ccccc13)O2` (stereo not given) here?
**A.** Its melting point is 167 to 168 °C.

**Q.** With `COc1ccccc1/C(=C/C=C/C(=O)NCCCCc1cccnc1)c1ccccc1` as the compound, how does the melting point read?
**A.** The melting point was 66 to 68 °C.

**Q.** For `CC1(CNC(=O)C2CCCCC2)OCCc2c1[nH]c1ccccc21` (stereo not given), which melting point is on record?
**A.** Its melting point is 174 to 175 °C.

**Q.** With `O=C(Nc1ccc(Cl)cn1)c1cc(Cl)ccc1NCC1CCN(C2CCOCC2)CC1` as the compound, how does the melting point read?
**A.** Its melting point is 192 to 194 °C.

**Q.** With `N#Cc1cnc2sc(-c3ccccc3)cc2c1Oc1ccc2[nH]ccc2c1` as the compound, how does the melting point read?
**A.** Its melting point is 219 to 221 °C.

**Q.** For `Cc1ccc2nc(-c3ccccc3)cc(OCC(=O)N3CCOCC3)c2c1`, which melting point is on record?
**A.** Its melting point is 158 °C.

**Q.** For `COCCCCCCOc1ccc(C#Cc2ccc(C(=O)O)cc2)cc1C12CC3CC(CC(C3)C1)C2`, which melting point is on record?
**A.** The melting point was 241 to 242 °C.

**Q.** Which melting point does the source give for `COc1ccc2nc3ccc(OC)cc3c(C(=O)Oc3c(Br)cccc3Br)c2c1` here?
**A.** The melting point was 245 to 247 °C.

**Q.** Which melting point does the source give for `O=c1cc(-c2ccc(O)c(Br)c2)oc2ncccc12` here?
**A.** The melting point was 267 to 272 °C.

**Q.** With `Nc1cc(N2CCCNCC2)nc(N)n1` as the compound, how does the melting point read?
**A.** Its melting point is 62 to 72 °C.

**Q.** With `OC1c2cc(OCc3ccc4ccccc4n3)ccc2OCC1Oc1cccnc1` (stereo not given) as the compound, how does the melting point read?
**A.** Its melting point is 126 to 128 °C.

**Q.** Which melting point does the source give for `CN(CCO)C(=O)C(C)(C)NC(=O)c1cc2c(n(CC3CCCCC3)c1=O)CCCCCC2` here?
**A.** The melting point was 195 to 196 °C.

**Q.** Which melting point does the source give for `CCOc1ccc(C(=O)COC(C)=O)cc1` here?
**A.** Its melting point is 81 to 82 °C.

**Q.** Which melting point does the source give for `CS(=O)(=O)c1ccc(C2=C(c3ccc(-c4cscn4)cc3)C(=O)OC2)cc1` here?
**A.** Its melting point is 237 °C.

**Q.** With `O=C1NC(=O)C(Cc2ccc(OCc3nc4cccnc4n3-c3ccccc3)cc2)S1` (stereo not given) as the compound, how does the melting point read?
**A.** Its melting point is 88 to 91 °C.

**Q.** Which melting point does the source give for `OCCC1(CCO)c2ccccc2Oc2ccccc21` here?
**A.** The melting point was 144 to 145 °C.

**Q.** With `CCOC(=O)CNC(=S)Cc1cnc(C)c(O)c1CO` as the compound, how does the melting point read?
**A.** The melting point was 147 to 149 °C.

**Q.** For `CCOC(C)OC(C)(C)CCCC(C)C1CCC2C3CC=C4CC(O)CC(O)C4(C)C3CCC12C` (stereo not given), which melting point is on record?
**A.** Its melting point is 128 to 130 °C.

**Q.** Which melting point does the source give for `Cc1cc(C)n(C(=N)NC(=S)Nc2cccnc2)n1` here?
**A.** The melting point was 132 °C.

**Q.** With `O=C(O)c1cnc2cc(F)c(F)cc2c1` as the compound, how does the melting point read?
**A.** Its melting point is 290 °C.

**Q.** Which melting point does the source give for `CCOC(=O)c1cc2c(C)c(OCc3ccccc3)ccc2n1C` here?
**A.** Its melting point is 100 to 101 °C.

**Q.** Which melting point does the source give for `COc1ccc(OCC(=O)O)c2c(=O)c3ccccc3sc12` here?
**A.** Its melting point is 223 to 225 °C.

**Q.** Which melting point does the source give for `Cn1nc(-c2cc(C=C(Cl)C(=O)O)c(Cl)cc2F)c(Cl)c1C(F)(F)F` here?
**A.** The melting point was 195 to 196 °C.

**Q.** Which melting point does the source give for `CONC(=O)c1cccc(-c2nc3ccccc3c(=O)o2)c1` here?
**A.** Its melting point is 223 to 226 °C.

**Q.** For `CCCC[C@H](NC(=O)[C@H](CC(C)C)NC(=O)c1cc(F)c(F)c(F)c1F)C(=O)CSCc1ccco1`, which melting point is on record?
**A.** The melting point was 107 to 108 °C.

**Q.** With `O=C(O)C1c2ccccc2COc2ccc(Cl)cc21` (stereo not given) as the compound, how does the melting point read?
**A.** Its melting point is 182 to 183 °C.

**Q.** With `CCOC(=O)CC1NCCN(CCc2c[nH]c3ccc(Cl)cc23)C1=O` (stereo not given) as the compound, how does the melting point read?
**A.** The melting point was 136 °C.

**Q.** With `Nc1c(Cl)cc(C(O)CNC2CC2)cc1C(F)(F)F` (stereo not given) as the compound, how does the melting point read?
**A.** Its melting point is 138 to 139 °C.

**Q.** Which melting point does the source give for `COc1cc2c(cc1OC(C)=O)CCC1C2CCC2(C)C1CCC21OCCO1` (stereo not given) here?
**A.** The melting point was 166 to 167 °C.

**Q.** Which melting point does the source give for `CCCCCCCCc1ccc(CCC(CO)(CO)[N+](=O)[O-])cc1` here?
**A.** The melting point was 80 to 82 °C.

**Q.** For `N#Cc1c(N2CCc3ccccc3CC2)nc(CSc2ccccc2)[nH]c1=O`, which melting point is on record?
**A.** Its melting point is 189 to 194 °C.

**Q.** With `CN(C)N=Nc1cscc1C(N)=O` as the compound, how does the melting point read?
**A.** The melting point was 168 to 172 °C.

**Q.** Which melting point does the source give for `CCN1CCC(c2ccccc2)=C(C(=O)OCC2CCCCC2)C1` here?
**A.** The melting point was 94 to 97 °C.

**Q.** Which melting point does the source give for `CC(C)(C)OC(=O)c1ncn2c1c(C(=O)N1CCCC1)cc1ccccc12` here?
**A.** The melting point was 216 to 218 °C.

**Q.** With `O=C(Nc1ccc(N2CCNCC2)c(C(F)(F)F)c1)c1ccc(F)c(OCc2cccnc2)c1` as the compound, how does the melting point read?
**A.** The melting point was 61 to 66 °C.

**Q.** Which melting point does the source give for `Oc1cc(-c2ccc(Cl)cc2F)n[nH]1` here?
**A.** Its melting point is 194 °C.

**Q.** For `CC(=O)N(CCCc1ccccc1)[C@H]1CC[C@H](c2ccc(O)cc2)CC1`, which melting point is on record?
**A.** The melting point was 175 to 180 °C.

**Q.** With `N[C@@H](CCC1CCCCC1)C(=O)O` as the compound, how does the melting point read?
**A.** The melting point was 265 to 266 °C.

**Q.** For `NC(=O)c1cccc(OCc2cccc(Br)c2)c1`, which melting point is on record?
**A.** Its melting point is 129 to 131 °C.
